This note sets out measurements from US8048899B2, “Compounds which selectively modulate the CB2 receptor” (Boehringer Ingelheim International GmbH, priority 2008, dated 2011).

The term pEC50 denotes the negative decadic logarithm of the EC50, by convention in mol/L.

pEC50: −log10 of the molar value. Where two headings read alike, the source gives them in different places.

One assay concerns the target T1, human CB2R (Homo sapiens, UniProt P34972).
T1 construct: host or cells: CHO cells
The experiment in a line: CB2R mediated modulation of cAMP synthesis. Format: cell-based. Here is the method:
B. CB2R Mediated Modulation of cAMP Synthesis:
Compounds of the invention are evaluated for their CB2 agonist or inverse agonistic activity in accordance with the following experimental method.
(§1) CHO cells expressing human CB2R (Euroscreen) are plated at a density of 5000 cells per well in 384 well plates and incubated overnight at 37° C. After removing the media, the cells are treated with test compounds diluted in stimulation buffer containing 1 mM IBMX, 0.25% BSA and 10 uM Forskolin. The assay is incubated for 30 minutes at 37° C. Cells are lysed and the cAMP concentration is measured using DiscoverX-XS cAMP kit, following the manufacturer's protocol. In this setting, agonists will decrease forskolin induced production of cAMP while inverse agonists will further increase forskolin induced production of cAMP. EC50 of agonists are calculated as follows. The maximal amount of cAMP produced by forskolin compared to the level of cAMP inhibited by 1 uM CP55940 is defined as 100%. […] Data is analyzed using a four-parameter logistic model. (Model 205 of XLfit 4.0).

For a further assay, the target named is T2, human CB1R (Homo sapiens, UniProt P21554).
T2 construct: host or cells: CHO cells
Nature of the assay: CB1R mediated modulation of cAMP synthesis. In kind it is cell-based. Here is the method:
C. CB1R Mediated Modulation of cAMP Synthesis:
Compounds of the invention are evaluated for their CB1 agonist or inverse agonistic activity in accordance with the following experimental method.
as §1, with “CB1R” for “CB2R”

Where [1] appears, read: CHO cells expressing human CB2R, inhibition of forskolin-stimulated cAMP synthesis, read-out: CB2 EC50.
Setting [2] is: CHO cells expressing human CB1R, inhibition of forskolin-stimulated cAMP synthesis, read-out: CB1 EC50.

T1 sequence (P34972 whole entry): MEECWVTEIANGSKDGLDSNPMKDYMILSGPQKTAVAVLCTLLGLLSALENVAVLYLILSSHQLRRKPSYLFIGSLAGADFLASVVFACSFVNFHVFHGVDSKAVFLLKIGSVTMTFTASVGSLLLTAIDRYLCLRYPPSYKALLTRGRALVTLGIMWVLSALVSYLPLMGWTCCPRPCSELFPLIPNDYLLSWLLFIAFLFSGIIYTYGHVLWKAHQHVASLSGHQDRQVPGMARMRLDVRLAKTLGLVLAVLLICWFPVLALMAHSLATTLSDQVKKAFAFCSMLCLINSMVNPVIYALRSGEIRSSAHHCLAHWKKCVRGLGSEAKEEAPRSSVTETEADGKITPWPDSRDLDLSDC
T2 sequence (P21554 whole entry): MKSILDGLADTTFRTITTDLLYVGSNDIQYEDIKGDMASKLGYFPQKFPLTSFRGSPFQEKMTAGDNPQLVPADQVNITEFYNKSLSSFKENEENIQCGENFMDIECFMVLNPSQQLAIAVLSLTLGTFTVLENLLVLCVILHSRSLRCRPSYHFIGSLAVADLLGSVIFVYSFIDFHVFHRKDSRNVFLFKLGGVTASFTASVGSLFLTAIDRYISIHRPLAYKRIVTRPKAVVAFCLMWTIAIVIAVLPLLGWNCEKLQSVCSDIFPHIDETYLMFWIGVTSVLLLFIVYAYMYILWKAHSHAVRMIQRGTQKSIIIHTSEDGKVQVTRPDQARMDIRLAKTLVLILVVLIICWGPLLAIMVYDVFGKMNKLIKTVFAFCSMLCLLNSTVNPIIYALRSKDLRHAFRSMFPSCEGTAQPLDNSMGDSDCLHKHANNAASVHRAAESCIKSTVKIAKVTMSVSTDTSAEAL

In the case of `CC(C)(CO)c1cc(NC(=O)C2(S(=O)(=O)C3CCOCC3)CCC2)on1`, the results for the pEC50 at human CB2R (setting [1]) and at human CB1R (setting [2]) were 6.67 and under 4.30, respectively.
For `CC(C)(CO)c1cc(NC(=O)C(C)(C)S(=O)(=O)CC[C@H]2CCOC2)on1`, the pEC50 at human CB2R was 8.21; at human CB1R, under 4.70.
In the same order, the values of `COCC(C)(C)c1cc(NC(=O)C(C)(C)S(=O)(=O)C2CCN(S(C)(=O)=O)CC2)no1` are 8.21 and under 4.30.
In the same order, the values of `CC(C)(CO)c1cc(NC(=O)C(C)(C)S(=O)(=O)CCCC(F)(F)F)no1` are 7.60 and under 4.70.
The corresponding values for `CC(C)(C(=O)Nc1cc(C2(CO)CCCC2)no1)S(=O)(=O)CC1CCOCC1` are 6.69 and under 4.30.
On to `COc1ccc(-c2nnc(NC(=O)C(C)(C)S(=O)(=O)C3CCOCC3)[nH]2)cc1`, for which the values for the pEC50 at human CB2R and at human CB1R were 9.18 and under 4.70, respectively.
Consider `COc1ccc(-c2nnc(NC(=O)C(C)(C)S(=O)(=O)CC3CC3)[nH]2)c(F)c1`, for which the pEC50 on human CB2R is 7.47; at human CB1R, under 4.30.
For the compound `CC[C@H](C)S(=O)(=O)C(C)(C)C(=O)Nc1cc(C(C)(C)CO)no1`, the negative-log EC50 (pEC50) on human CB2R (setting [1]) is 6.93; at human CB1R (setting [2]), under 4.30.
Turning to `CC(C)(CO)c1cc(NC(=O)C(C)(C)S(=O)(=O)c2ccc(F)cc2)no1`, the values for the pEC50 at human CB2R and on human CB1R were 7.35 and under 4.30, respectively.
`CC(C)(C(=O)Nc1cc(C2(CO)CCCCC2)no1)S(=O)(=O)CC1CCC1`: the values for the pEC50 at human CB2R and at human CB1R were 7.17 and under 4.70, respectively.
`CC(C)(CO)c1cc(NC(=O)C(C)(C)S(=O)(=O)C2CCCC2)no1`: the pEC50 is 6.65 at human CB2R (setting [1]) and at most 4.30 on human CB1R (setting [2]).
Consider `CC(C)(C(=O)Nc1nnc(-c2ccc(O)cc2)[nH]1)S(=O)(=O)c1ccc(F)cc1`, for which the pEC50 is 8.40 at human CB2R and under 4.70 on human CB1R.
In the same order, the values of `CC(C)(C(=O)Nc1cc(C2(CO)CCCCC2)no1)S(=O)(=O)C1CCOCC1` are 7.42 and under 4.70.
Consider `CC(C)(CO)c1nnc(NC(=O)C(C)(C)S(=O)(=O)C2CCOCC2)s1`, for which the pEC50 was 7.32 at human CB2R and under 4.30 on human CB1R.
In the same order, the values of `COCC(C)(C)c1cc(NC(=O)C(C)(C)S(=O)(=O)C2CCOCC2)no1` are 8.46 and under 4.30.
In the same order, the values of `CC(C)(C(=O)Nc1nnc(-c2ccc(O)cc2)[nH]1)S(=O)(=O)CC1CC1` are 7.47 and under 4.30.
Regarding `COc1ccccc1-c1n[nH]c(NC(=O)C(C)(C)S(=O)(=O)CC2CC2)n1`, the pEC50 was 7.82 at human CB2R and under 4.70 at human CB1R.
The corresponding values for `CC[C@H](C)S(=O)(=O)C(C)(C)C(=O)Nc1cc(C2(CO)CCCC2)no1` are 7.09 and under 4.70.
Take `CC(C)(CO)c1cc(NC(=O)C(C)(C)S(=O)(=O)CCC(F)(F)F)on1`: the figures for the pEC50 at human CB2R (setting [1]) and on human CB1R (setting [2]) were 6.98 and under 4.30, respectively.
For the compound `CC(C)(C(=O)Nc1nc(-c2ccc(O)cc2)n[nH]1)S(=O)(=O)C1CCCC1`, the pEC50 on human CB2R is 7.44; at human CB1R it was under 4.30.
In the same order, the values of `COCC(C)(C)c1cc(NC(=O)C(C)(C)S(=O)(=O)CC2CCOCC2)on1` are 7.54 and under 4.70.
The corresponding values for `CC(C)(CO)c1cc(NC(=O)C(C)(C)S(=O)(=O)C2CCOCC2)on1` are 7.96 and under 4.30.
For `CC(C)(C(=O)Nc1nnc(-c2ccc(O)cc2)[nH]1)S(=O)(=O)C1CCOCC1`, the figures for the pEC50 at human CB2R and on human CB1R were 8.30 and under 4.70, respectively.
On to `CC(C)(C(=O)Nc1nc(-c2cccc(O)c2)n[nH]1)S(=O)(=O)C1CCOCC1`, for which the results for the pEC50 at human CB2R (setting [1]) and at human CB1R (setting [2]) were 6.89 and under 4.30, respectively.
Turning to `CC(C)(C(=O)Nc1nc(-c2ccc(O)cc2)n[nH]1)S(=O)(=O)CC1CCC1`, the pEC50 on human CB2R is 7.66; at human CB1R it was under 4.30.
With `CC(C)(C(=O)Nc1cc(C2(CO)CC2)no1)S(=O)(=O)C1CCOCC1`, the pEC50 on human CB2R (setting [1]) is 6.93; on human CB1R (setting [2]), under 4.30.
In the case of `COc1ccc(-c2nnc(NC(=O)C(C)(C)S(=O)(=O)C3CCN(S(C)(=O)=O)CC3)[nH]2)cc1`, the pEC50 is 7.80 at human CB2R and 4.53 at human CB1R.
In the same order, the values of `COc1ccc(-c2nnc(NC(=O)C(C)(C)S(=O)(=O)C[C@H]3CCOC3)[nH]2)cc1` are 7.05 and under 4.30.
In the same order, the values of `COc1ccc(-c2nnc(NC(=O)C(C)(C)S(=O)(=O)c3ccc(S(C)(=O)=O)cc3F)[nH]2)cc1` are 8.68 and under 4.70.
In the same order, the values of `CC(C)(C(=O)Nc1nnc(-c2ccc(O)cc2F)[nH]1)S(=O)(=O)C1CCOCC1` are 8.11 and under 4.30.
Turning to `COc1ccc(-c2nnc(NC(=O)C(C)(C)S(=O)(=O)C[C@@H]3CCOC3)[nH]2)cc1`, the pEC50 was 6.62 at human CB2R and under 4.30 on human CB1R.
For the compound `CC(C)(C(=O)Nc1cc(C2(CO)CC2)no1)S(=O)(=O)CCCC(F)(F)F`, the pEC50 was 6.61 at human CB2R (setting [1]) and under 4.30 at human CB1R (setting [2]).
As to `COc1ccc(-c2nnc(NC(=O)C(C)(C)S(=O)(=O)N3CC[C@@H](F)C3)[nH]2)cc1`, the values for the pEC50 at human CB2R and at human CB1R were 7.48 and under 4.30, respectively.
Consider `COCC(C)(C)c1cc(NC(=O)C(C)(C)S(=O)(=O)CC2CC2)on1`, for which the pEC50 at human CB2R (setting [1]) is 6.92; on human CB1R (setting [2]) it was under 4.30.
`CC(C)(CO)c1cc(NC(=O)C(C)(C)S(=O)(=O)CC[C@@H]2CCOC2)on1`: the pEC50 on human CB2R is 7.85; on human CB1R it was under 4.30.
In the same order, the values of `CC(C)(C(=O)Nc1nnc(-c2ccc(O)cc2F)[nH]1)S(=O)(=O)CC1CCC1` are 8.03 and 4.46.
As for `CC(C)CCS(=O)(=O)C(C)(C)C(=O)Nc1nnc(C(C)(C)CO)s1`, the pEC50 at human CB2R was 7.74; on human CB1R, under 4.70.
Consider `CCOc1ccc(-c2n[nH]c(NC(=O)C(C)(C)S(=O)(=O)CC3CC3)n2)cc1`, for which the results for the pEC50 at human CB2R (setting [1]) and on human CB1R (setting [2]) were 6.31 and under 4.30, respectively.
Regarding `CC(C)(C(=O)Nc1cc(C2(CO)CCCC2)no1)S(=O)(=O)C1CCOCC1`, the pEC50 at human CB2R is 7.82; at human CB1R, under 4.30.
The corresponding values for `CC(C)(CO)c1cc(NC(=O)C(C)(C)S(=O)(=O)CC2CCC(=O)CC2)on1` are 7.17 and under 4.30.
The corresponding values for `CC(C)(C(=O)Nc1cc(C2(CO)CCC2)no1)S(=O)(=O)C1CCOCC1` are 7.11 and under 4.30.
In the same order, the values of `CC(C)(CO)c1cc(NC(=O)C(C)(C)S(=O)(=O)c2cccc(F)c2F)no1` are 7.16 and under 4.30.
As for `COCC(C)(C)c1cc(NC(=O)C(C)(C)S(=O)(=O)CC2CCOCC2)no1`, the values for the pEC50 on human CB2R (setting [1]) and at human CB1R (setting [2]) were 6.86 and under 4.70, respectively.
Regarding `CC(C)(CO)c1cc(NC(=O)C(C)(C)S(=O)(=O)CC2CCOCC2)no1`, the pEC50 is 6.68 on human CB2R (setting [1]) and under 4.30 at human CB1R (setting [2]).
Turning to `COCC(C)(C)c1cc(NC(=O)C(C)(C)S(=O)(=O)C2CCCC2)on1`, the pEC50 on human CB2R is 7.82; on human CB1R it was under 4.70.
In the same order, the values of `CC(C)(CO)c1cc(NC(=O)C(C)(C)S(=O)(=O)C2CCCC2)on1` are 7.12 and under 4.70.
For `CC(C)(CO)c1cc(NC(=O)C(C)(C)S(=O)(=O)CC2CCC2)no1`, the pEC50 at human CB2R was 7.02; at human CB1R, under 4.30.
With `CC(C)(C(=O)Nc1nc(-c2cccc(O)c2)n[nH]1)S(=O)(=O)CC1CC1`, the results for the pEC50 on human CB2R (setting [1]) and at human CB1R (setting [2]) were 6.55 and under 4.30, respectively.
In the same order, the values of `COc1ccc(-c2nnc(NC(=O)C(C)(C)S(=O)(=O)CC3(C)CCOCC3)[nH]2)cc1` are 6.73 and under 4.70.
`COc1ccc(-c2nnc(NC(=O)C(C)(C)S(=O)(=O)CC3CCC3)[nH]2)c(F)c1`: the pEC50 was 8.12 at human CB2R and under 4.70 on human CB1R.
For the compound `COc1ccc(-c2nnc(NC(=O)C(C)(C)S(=O)(=O)N3CCC3)[nH]2)cc1`, the values for the pEC50 on human CB2R and at human CB1R were 7.49 and under 4.70, respectively.
In the same order, the values of `COc1ccc(-c2nnc(NC(=O)C(C)(C)S(=O)(=O)CC(C)C)[nH]2)cc1` are 7.16 and under 4.70.
Consider `CC(C)(CO)c1cc(NC(=O)C(C)(C)S(=O)(=O)CCCC(F)(F)F)on1`, for which the pEC50 at human CB2R (setting [1]) was 7.82; on human CB1R (setting [2]) it was under 4.70.
In the same order, the values of `CC(C)(CO)c1cc(NC(=O)C(C)(C)S(=O)(=O)c2cccc(F)c2F)on1` are 6.76 and under 4.70.
On to `CC(C)(CO)c1cc(NC(=O)C(C)(C)S(=O)(=O)CC2CCOCC2)on1`, for which the pEC50 was 7.41 on human CB2R (setting [1]) and under 4.30 at human CB1R (setting [2]).
